Measured values as given in patent US5886022A, “Substituted cycloalkanecarboxylic acid derivatives as matrix metalloprotease inhibitors” (priority 1997, dated 1999).
Structures can show the parent of a compound that is named as a salt.

Assays:
Assay type in all cases: biochemical
[1] = molecular target: T1, MMP-9 (Gelatinase-B, 92 kDa) (Homo sapiens, UniProt P14780); experiment: Thiopeptilide MMP-9 Inhibition Assay; settings: for IC50: x (n): average IC50 of n separate determinations
T1 construct: from tissue; host or cells: human polymorphonuclear leukocytes from fresh whole blood (New York Blood Center), PMA-stimulated supernatant, purified
Procedure: MMP-9 was isolated modifying the previously described procedures of Hibbs et al (J. Biol. Chem., 260, 2493-2500, 1984) and Wilhelm et al (J. Biol. Chem., 264, 17213-17221, 1989). Briefly, polymorphonuclear leukocytes (PMN) preparations were isolated as described above from 3 or more units of freshly drawn whole blood obtained from the New York Blood Center (N.Y., N.Y.). Cells were resuspended in phosphate buffered saline (PBS) containing 100 ng/ml phorbol myristate acetate (PMA) in the presence of 50 mM di-isopropylfluorophospate (DFP), 1 μg/ml leupeptin and aprotinin, and 1 mg/ml catalase for 1 hr at 37° C. Supernatants were collected by centrifugation (300×g) and the samples were frozen at -70° C. All chromatographic methods were performed at 4° C. Thawed samples were concentrated 5-fold using an Amicon chamber equipped with a YM-10 membrane. The concentrate was pressure dialyzed against 0.02M Tris-HCl, 0.1M NaCl, 1 mM CaCl2, 1 μM ZnCl2, 0.001 % Brij-35, 0.02% sodium azide (NaN3), pH 7.5 and applied to DEAE ion exchange chromatography resin which was previously equilibrated with the same buffer at a flow rate of 0.4 ml/min. The column was extensively washed with the same buffer and gelatinase was eluted as 4 ml fractions from the column with 0.02M Tris-HCl, 0.5M NaCl, 1 mM CaCl2, 1 μM ZnCl2, 0.001% Brij-35, 0.02% NaN3, pH 7.5. Gelatinase containing fractions were observed by gelatin zymography (see below), loaded onto a gelatin agarose affinity resin and washed with the same buffer. Gelatinase activity was eluted at a flow rate of 1 ml/min from the column as 1 ml fractions with 0.02M Tris-HCl, 1M NaCl, 1 mM CaCl2, 1 μmM ZnCl2, 0.001% Brij-35, 0.02% NaN3, pH 7.5 containing 10% dimethyl sulfoxide (DMSO). The fractions containing gelatinase activity were pooled and dialyzed against 0.005M Tris-HCl, 5 mM NaCl, 0.5 mM CaCl2, 0.1 μM ZnCl2, 0.001% Brij-35, pH 7.4. The protein content associated with material was determined with a micro-BCA assay (Pierce, Rockford, Ill.), lyophilized and reconstituted to a desired working concentration (100 μg/ml).
Progelatinase (10 μg/ml) isolated from human PMNs (described above) was activated with 1 mM 4-aminophenylmercuric acetate (APMA) in 50 mM Tris-HCl, 200 mM NaCl, 5 mM CaCl2, 0.001% Brij-35, pH 7.6 at 37° C. for 16 hr. The activated enzyme was dialyzed against the above buffer to remove APMA. The thiopeptolide spectrophotometric ( Weingarten, H., Feder, J., Anal. Biochem., 147, 437-440, 1985) substrate hydrolysis assay was modified to a micro-assay format. Spectrophotometric analysis of MMP-9 activity required a 1000-fold dilution of activated MMP-9 (10 ng/ml, 0.14 nM) in assay buffer comprised of 50 mM 4-(2-hydroxyethyl)1-piperazine ethane sulfonic acid (HEPES), 0.15M NaCl, 10 mM CaCl2, 0.001% Brij-35, pH 6.5 between 100 and 1000-fold for enzyme assays. Reaction mixtures for inhibitor studies contained 1 mM Ac-Pro-Leu-Gly-S-Leu-Leu-Gly-o-ethyl thiopeptolide substrate dissolved in HEPES assay buffer pH 6.5, along with 0.5 mM 5,5'-dithio-bis-(nitrobenzoicacid), drug concentrations ranging from 0.5 nM to 5 μM and activated enzyme (10-100 ng) in a total volume of 130 μl. The hydrolysis of substrate was monitored at 405 nm using an automated plate reader (Molecular Devices, Menlo Park, Calif.). Enzyme mediated substrate hydrolysis was corrected for non-enzymatic hydrolysis of the substrate by the subtraction of values from control samples incubated in the absence of enzyme. Drug efficacy was reported as the percent inhibition of enzyme activity calculated as:
(Control Values-Treated Values)/Control Values×100
Two way analysis of variance was used to determine significance between individual test groups.
All IC50 values are expressed as nM. When "I=x %" is shown, x presents the % inhibition at 5 μM. When "x (n)" is shown, x is the erage IC50 value of n separate determinations.

[2] = molecular target: T2, MMP-3 (recombinant truncated stromelysin) (Homo sapiens, UniProt P08254); experiment: Primary Thiopeptilide MMP-3 Inhibition Assay; settings: for IC50: x (n): average IC50 of n separate determinations
T2 construct: made in house; host or cells: E. coli

MMP = MMP inhibitory activity

T1 sequence (P14780 107-707 limits assumed): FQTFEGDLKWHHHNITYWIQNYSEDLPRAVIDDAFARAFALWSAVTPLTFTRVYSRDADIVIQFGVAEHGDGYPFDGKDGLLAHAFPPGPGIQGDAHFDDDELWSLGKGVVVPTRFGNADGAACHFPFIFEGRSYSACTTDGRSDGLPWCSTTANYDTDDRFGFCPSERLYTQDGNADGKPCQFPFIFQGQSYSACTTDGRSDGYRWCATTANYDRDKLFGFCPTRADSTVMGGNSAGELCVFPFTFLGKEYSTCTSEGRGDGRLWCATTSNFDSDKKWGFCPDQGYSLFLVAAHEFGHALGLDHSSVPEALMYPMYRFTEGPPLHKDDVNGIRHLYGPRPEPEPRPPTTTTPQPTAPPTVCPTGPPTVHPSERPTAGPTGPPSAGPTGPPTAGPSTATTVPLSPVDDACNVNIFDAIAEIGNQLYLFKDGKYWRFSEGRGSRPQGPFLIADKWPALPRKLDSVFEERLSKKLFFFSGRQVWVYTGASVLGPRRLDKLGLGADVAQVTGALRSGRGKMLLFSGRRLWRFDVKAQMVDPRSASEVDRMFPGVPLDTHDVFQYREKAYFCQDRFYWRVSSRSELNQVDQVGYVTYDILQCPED
T2 sequence (P08254 100-274 limits assumed): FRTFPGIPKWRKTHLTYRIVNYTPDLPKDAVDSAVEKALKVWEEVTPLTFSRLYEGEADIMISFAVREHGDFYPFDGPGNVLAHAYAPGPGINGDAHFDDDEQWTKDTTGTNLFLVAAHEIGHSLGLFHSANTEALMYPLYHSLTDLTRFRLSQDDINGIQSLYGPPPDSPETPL

IC50 [1]	IC50 [2]	SMILES	other results
640 nM		O=C(O)[C@@H]1[C@@H](C(=O)c2ccc(-c3ccc(Cl)cc3)cc2)CC[C@H]1Sc1ccccc1 (single isomer, unassigned) [Example 212, Cyclopentanecarboxylic acid, 2-[(4'-chloro[,1'-biphenyl]-4-yl)carbonyl]-5-(phenylthio)-, [1R-(1α,2β,5β)]-]	
	5000 nM	CC(C)CC(CC(O)c1ccc(-c2ccc(Cl)cc2)cc1)C(=O)O (stereo not drawn) [Example 27, [1,1'-Biphenyl]-4-butanoic acid, 4'-chloro-γ-hydroxy-α-(2-methylpropyl)-]	
2400 nM	2600 nM	CC(C)CC(CC(O)c1ccc(-c2ccc(Cl)cc2)cc1)C(=O)O (stereo not drawn) [Example 26, [1,1'-Biphenyl]-4-butanoic acid, 4'-chloro-γ-hydroxy-α-(2-methylpropyl)-]	
		CCN(CC)CCC(CC(=O)c1ccc(-c2ccc(Cl)cc2)cc1)C(=O)O (stereo not drawn) [Example 191, [1,1'-Biphenyl]-4-butanoic acid, 4'-chloro-α-[2-(diethylamino)ethyl]-γ-oxo-,hydrochloride]	inhibition at 5 µM ([1]; at 5 μM, read-out: MMP-9 Thiopeptilide % inhibition (I)): 31%
108 nM	33 nM	COC(=O)c1ccccc1S[C@@H]1CC[C@H](C(=O)c2ccc(-c3ccc(Cl)cc3)cc2)[C@H]1C(=O)O (relative stereo) [Example 219, Benzoic acid, 2-[[2-carboxy-3-[(4'-chloro[1,1'-biphenyl]-4-yl)carbonyl]cyclopentyl]thio]-, 1-methyl ester, (1α,2β,3α)-]	
900 nM		O=C(CC(Cc1ccccc1)C(=O)O)c1ccc(-c2ccc(Cl)cc2)cc1 (stereo not drawn) [Example 105, [1,1'-Biphenyl]-4-butanoic acid, 4'-chloro-γ-oxo-α-(phenylmethyl)-]	
	98 nM	CCOc1ccc(-c2ccc(C(=O)[C@@H]3CC[C@H](Cc4ccccc4)[C@H]3C(=O)O)cc2)cc1 (relative stereo) [Example 226, Cyclopentanecarboxylic acid, 2-[(4'-ethoxy[1,1'-biphenyl]-4-yl)carbonyl]-5-(phenylmethyl)-, (1α,2β,5β)-]	
		O=C(O)[C@@H]1CC[C@H]1C(=O)c1ccc(-c2ccc(Cl)cc2)cc1 (relative stereo) [Example 206, Cyclobutanecarboxylic acid, 2-[(4'-chloro[1,1'-biphenyl]-4-yl)carbonyl]-, trans-]	MMP inhibitory activity / potency in words (MMP): much more active
		CC(C)CC(CC(=O)c1ccc(-c2ccccc2)cc1)C(=O)O (stereo not drawn) [Example 13, [1,1'-Biphenyl]-4-butanoic acid, α-(2-methylpropyl)-γ-oxo-]	MMP inhibitory activity / potency in words (MMP): low potency
700 nM	340 nM	O=C(O)[C@@H]1[C@H](Sc2ccc(Cl)cc2)CC[C@H]1C(=O)c1ccc(-c2ccc(Cl)cc2)cc1 (relative stereo) [Example 223, Cyclopentanecarboxylic acid, 2-[(4'-chloro[1,1'-biphenyl]-4-yl)carbonyl]-5-[(4-chlorophenyl)thio]-, (1α,2β,5α)-]	
	66 nM	CCOc1ccc(-c2ccc(C(=O)[C@@H]3CC[C@@H](Sc4ccccc4)[C@H]3C(=O)O)cc2)cc1 (relative stereo) [Example 225, Cyclopentanecarboxylic acid, 2-[(4'-ethoxy[1,1'-biphenyl]-4-yl)carbonyl]-5-(phenylthio)-, (1α,2β,5α)-]	
1.8 nM	38 nM	O=C(CC(CCN1C(=O)c2ccccc2C1=O)C(=O)O)c1ccc(-c2ccc(Cl)cc2)cc1 (stereo not drawn) [Example 194, 2H-Isoindole-2-butanoic acid, α-[2-(4'-chloro[1,1'-biphenyl]-4-yl)-2-oxoethyl]-1,3-dihydro-1,3-dioxo-]	
	36 nM	CCOc1ccc(-c2ccc(C(=O)[C@@H]3CC[C@H](Sc4ccccc4)[C@H]3C(=O)O)cc2)cc1 (relative stereo) [Example 224, Cyclopentanecarboxylic acid, 2-[(4'-ethoxy[1,1'-biphenyl]-4-yl)carbonyl]-5-(phenylthio)-, (1α,2β,5β)-]	
		O=C(CC(C(=O)O)N1CCSCC1)c1ccc(-c2ccc(Cl)cc2)cc1 (stereo not drawn) [Example 184, 4-Thiomorpholineacetic acid, α-[2-(4'-chloro[1,1'-biphenyl]-4-yl)-2-oxoethyl]-, hydrochloride]	inhibition at 5 µM ([2]; at 5 μM, read-out: MMP-3 Thiopeptilide % inhibition (I)): 19%
		O=C(C[C@@H](C[S+]([O-])c1ccccc1)C(=O)O)c1ccc(-c2ccc(Cl)cc2)cc1 (stereo partly drawn) [Example 126, [1,1'-Biphenyl]-4-butanoic acid, 4'-chloro-γ-oxo-α-[(phenylsulfmyl)methyl]-,stereoisomer]	MMP-3 Thiopeptilide % inhibition (I) ([2]; at 5 μM): 17%
	1600 nM	Cc1cc(C)cc(SCC(CC(=O)c2ccc(-c3ccc(Cl)cc3)cc2)C(=O)O)c1 (stereo not drawn) [Example 165, [1,1'-Biphenyl]-4-butanoic acid, 4'-chloro-α-[[(3,5-dimethylphenyl)thio]methyl]-γ-oxo-]	
32 nM	80 nM	O=C(O)[C@@H]1[C@@H](Sc2ccc(Cl)cc2)CC[C@H]1C(=O)c1ccc(-c2ccc(Cl)cc2)cc1 (relative stereo) [Example 222, Cyclopentanecarboxylic acid, 2-[(4'-chloro [1,1'-biphenyl]-4-yl)carbonyl]-5-[(4-chlorophenyl)thio]-, (1α,2β,5β)-]	
2800 nM		O=C(CC(CCCc1ccccc1)C(=O)O)c1ccc(-c2ccccc2)cc1 (stereo not drawn) [Example 91, [1,1'-Biphenyl]-4-butanoic acid, γ-oxo-α-(3-phenylpropyl)-]	MMP inhibitory activity / potency in words (MMP): low potency
	140 nM	O=C(O)[C@@H]1[C@@H](Cc2ccccc2)CC[C@H]1C(=O)c1ccc(-c2ccc(Cl)cc2)cc1 (relative stereo) [Example 227, Cyclopentanecarboxylic acid, 2-[(4'-chloro [1,1'-biphenyl]-4-yl)carbonyl]-5-(phenylmethyl)-, (1α,2β,5β)-]	
		CC(=O)SC(CC(=O)c1ccc(Oc2ccc(Cl)cc2)cc1)C(=O)O (stereo not drawn) [Example 183, Benzenebutanoic acid, α-(acetylthio)-4-(4-chlorophenoxy)-γ-oxo-, reference compound]	MMP inhibitory activity / potency in words (MMP): very low potency
